# According to ChEMBL document CHEMBL1201862, “PubChem BioAssay data set” (2004):
# The source made the active and inactive calls.
# How the values were obtained:
# [1] = target: Cyclin-dependent kinase 5/CDK5 activator 1 (Homo sapiens, UniProt Q00535); test: CDK5/p35 kinase inhibitors, dose response, biochemical, cherry-picked samples, set 2 (AID 504545)
# [2] = target: T1, Eukaryotic translation initiation factor 2-alpha kinase 3 (Homo sapiens, UniProt Q9NZJ5); test: Dose response cell-based high-throughput screening assay to measure PERK inhibition. [Related pubchem assays: 1416 ]; assay type: functional
# [3] = target: T1, Eukaryotic translation initiation factor 2-alpha kinase 3; test: Counterscreen assay for PERK inhibitors: Dose response cell-based high throughput screening assay to measure inhibition of PERK at 6 hours. [Related pubchem assays: 1522, 1416 ]; assay type: functional
# [4] = polyadenylation inhibitors in yeast reporter, dose response, luminescence, S. cerevisiae SKY197-pL101 (AID 2525); assay type: functional, cell-based
# [5] = target: Sphingosine 1-phosphate receptor 2 (Homo sapiens, UniProt O95136); test: Dose Response Cell Based Assay for Antagonists of the S1P2 Receptor. [Related pubchem assays: 856, 736 ]; assay type: functional
# BJ [6] = test: cytotoxicity toward BJ-TERT fibroblasts, dose response, cell-based, RAS-independent, luminescence (AID 1933); assay type: functional; conditions: Homo sapiens
# BJ [7] = test: cells; assay type: functional, cell-based; conditions: Homo sapiens
# [8] = growth suppression of PTEN-null colon cells, dose response, cell-based, HCT116 PTEN knockout (AID 1047); assay type: functional;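 also: HCT116 colon tumor cells with PTEN knocked out; cells exposed to compound for 60 hours before readout; potency for loss of cell viability measured by luminescence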
# [9] = target: T2, Calpain-2 catalytic subunit (Sus scrofa, UniProt P43367); test: pig calpain II inhibitor potency, dose response, biochemical, fluorogenic peptide substrate (AID 1420); assay type: functional
# T2 sequence (P43367 whole entry): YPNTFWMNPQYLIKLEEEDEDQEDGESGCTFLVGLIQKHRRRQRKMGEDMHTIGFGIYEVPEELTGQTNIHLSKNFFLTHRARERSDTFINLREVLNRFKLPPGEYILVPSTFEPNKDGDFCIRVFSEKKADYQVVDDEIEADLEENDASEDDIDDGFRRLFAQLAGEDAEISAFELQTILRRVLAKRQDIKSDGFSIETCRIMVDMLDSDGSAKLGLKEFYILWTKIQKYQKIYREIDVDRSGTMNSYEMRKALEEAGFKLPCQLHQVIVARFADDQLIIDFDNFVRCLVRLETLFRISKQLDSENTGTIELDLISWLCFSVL
# [10] = growth suppression of beta-catenin-knockout colon cells, dose response, cell-based, HCT116, human colon tumor (AID 1045); assay type: functional;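 also: HCT116 colon tumor cells with beta catenin knocked out; cells exposed to compound for 60 hours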
# BJ [11] = test: cytotoxicity toward BJ-TERT-LT-ST fibroblasts, dose response, cell-based, RAS-independent, luminescence (AID 1935); assay type: functional; conditions: Homo sapiens;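 also: BJ fibroblasts immortalized with TERT plus LT and ST oncogenes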
# [12] = cytotoxicity toward DRD oncogenic fibroblasts, dose response, cell-based, non-viral oncogenic, luminescence (AID 1934); assay type: functional; conditions: Homo sapiens
# [13] = target: NACHT, LRR and PYD domains-containing protein 3 (Homo sapiens, UniProt Q96P20); test: NALP3 inhibitors in yeast, dose response, luminescent (AID 488799); assay type: functional
# [14] = cytotoxicity in HEK-293T cells, dose response, cytotoxicity control for TCR NF-kB inhibitor project, luminescence, T-cell screen hits (AID 489026); assay type: functional, cell-based;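 also: cells exposed to compound about 14 hours before the viability readout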
# [15] = target: Signal transducer and activator of transcription 3 (Homo sapiens, UniProt P40763); test: STAT3 activators, late-stage profile, late-stage follow-up, cell-based, STAT1 reporter, BCL3 qPCR, cytotoxicity, panel member STAT3 Activation (AID 2049)
# Wee1-like protein kinase = Wee1-like protein kinase (Homo sapiens, UniProt P30291); test: G2/M cell cycle arrest in HeLa, late-stage follow-up, mechanism study for Wee1 degradation inhibitor project, FACS, panel member Wee1 Degradation (AID 2088)
# [16] = target: G2/mitotic-specific cyclin-B1 (Homo sapiens, UniProt P14635); test: G2/M cell cycle arrest in HeLa, late-stage follow-up, mechanism study for Wee1 degradation inhibitor project, FACS, panel member Cyclin B Degradation (AID 2088)
# [17] = inhibitors of firefly luciferase expression or activity, dose response, H4 neuroglioma cells, luminescence (AID 1990); assay type: functional, cell-based
# [18] = Luminescence Cell-Based Dose Response HTS to Identify Inhibitors of 5'UTR Stem-Loop Driven Prion Protein mRNA Translation in H4 Neuroglioblastoma Cells. [Related pubchem assays: 1827 (Project Summary), 1813 (Primary HTS)]; assay type: functional
# [19] = inhibitors of SNCA 5'UTR-driven reporter translation, confirmation, H4 neuroglioma cells, luminescence (AID 1988); assay type: functional, cell-based
# [20] = target: T3, Alkaline phosphatase, tissue-nonspecific isozyme (Homo sapiens, UniProt P05186)
# T3 sequence (P05186 whole entry): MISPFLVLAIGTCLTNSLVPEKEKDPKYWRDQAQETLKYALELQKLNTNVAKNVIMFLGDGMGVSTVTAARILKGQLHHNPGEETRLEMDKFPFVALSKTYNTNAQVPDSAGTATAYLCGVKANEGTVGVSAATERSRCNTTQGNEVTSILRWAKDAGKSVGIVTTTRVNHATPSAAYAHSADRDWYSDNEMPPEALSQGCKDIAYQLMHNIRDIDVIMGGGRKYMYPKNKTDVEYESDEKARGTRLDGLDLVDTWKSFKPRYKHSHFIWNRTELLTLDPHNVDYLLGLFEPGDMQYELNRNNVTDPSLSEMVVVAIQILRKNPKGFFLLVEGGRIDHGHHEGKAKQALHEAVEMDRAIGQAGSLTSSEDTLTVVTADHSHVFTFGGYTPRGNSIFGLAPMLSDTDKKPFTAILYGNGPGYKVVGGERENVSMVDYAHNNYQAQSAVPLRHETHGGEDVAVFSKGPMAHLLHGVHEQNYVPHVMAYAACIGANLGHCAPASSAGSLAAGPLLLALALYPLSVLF
# Prothrombin = Prothrombin (Homo sapiens, UniProt P00734); test: Thrombin 1536 HTS Dose Response Confirmation. [Related pubchem assays: 1046 (Thrombin 1536 HTS; hits were confirmed in this assay)]; assay type: functional
# [21] = microbe, parasite or virus in culture; assay type: functional; conditions: Mycobacterium tuberculosis
# [22] = Cytotoxicity screening for potential Inhibitors of Bacterial Capsule Biogenesis. [Related pubchem assays (depositor defined):AID488970]; assay type: functional
# [23] = target: Heat shock protein HSP 90-alpha (Homo sapiens, UniProt P07900); assay type: functional, organism-based
# T1 sequence (Q9NZJ5 whole entry): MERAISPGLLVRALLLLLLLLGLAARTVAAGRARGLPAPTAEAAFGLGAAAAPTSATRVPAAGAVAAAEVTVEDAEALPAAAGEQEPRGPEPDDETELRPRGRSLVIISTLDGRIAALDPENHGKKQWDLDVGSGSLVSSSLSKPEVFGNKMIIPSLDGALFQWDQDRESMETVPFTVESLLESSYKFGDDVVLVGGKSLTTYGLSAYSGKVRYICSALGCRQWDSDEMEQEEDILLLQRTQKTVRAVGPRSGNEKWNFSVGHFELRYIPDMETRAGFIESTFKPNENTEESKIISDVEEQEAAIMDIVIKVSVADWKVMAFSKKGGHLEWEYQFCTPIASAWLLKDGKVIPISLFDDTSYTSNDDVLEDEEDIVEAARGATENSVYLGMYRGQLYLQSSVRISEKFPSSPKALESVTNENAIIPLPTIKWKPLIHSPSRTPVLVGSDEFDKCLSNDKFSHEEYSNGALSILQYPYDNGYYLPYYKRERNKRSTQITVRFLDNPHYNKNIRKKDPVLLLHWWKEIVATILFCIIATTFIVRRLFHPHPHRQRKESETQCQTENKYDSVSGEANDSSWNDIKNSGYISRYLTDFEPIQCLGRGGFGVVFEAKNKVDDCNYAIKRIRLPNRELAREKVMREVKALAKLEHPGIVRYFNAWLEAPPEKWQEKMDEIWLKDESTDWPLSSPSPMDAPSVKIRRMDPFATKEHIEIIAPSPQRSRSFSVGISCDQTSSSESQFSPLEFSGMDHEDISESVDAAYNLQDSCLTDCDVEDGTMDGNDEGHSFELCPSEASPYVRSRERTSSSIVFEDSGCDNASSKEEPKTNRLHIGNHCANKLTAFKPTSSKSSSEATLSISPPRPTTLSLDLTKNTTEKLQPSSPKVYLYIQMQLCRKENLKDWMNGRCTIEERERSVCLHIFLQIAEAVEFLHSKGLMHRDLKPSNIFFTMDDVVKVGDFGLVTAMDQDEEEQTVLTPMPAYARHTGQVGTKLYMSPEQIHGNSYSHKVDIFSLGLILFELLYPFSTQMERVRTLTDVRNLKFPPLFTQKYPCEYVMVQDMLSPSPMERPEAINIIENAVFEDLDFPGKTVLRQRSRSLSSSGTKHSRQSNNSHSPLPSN
# G2/mitotic-specific cyclin-B1, sequence (P14635 whole entry): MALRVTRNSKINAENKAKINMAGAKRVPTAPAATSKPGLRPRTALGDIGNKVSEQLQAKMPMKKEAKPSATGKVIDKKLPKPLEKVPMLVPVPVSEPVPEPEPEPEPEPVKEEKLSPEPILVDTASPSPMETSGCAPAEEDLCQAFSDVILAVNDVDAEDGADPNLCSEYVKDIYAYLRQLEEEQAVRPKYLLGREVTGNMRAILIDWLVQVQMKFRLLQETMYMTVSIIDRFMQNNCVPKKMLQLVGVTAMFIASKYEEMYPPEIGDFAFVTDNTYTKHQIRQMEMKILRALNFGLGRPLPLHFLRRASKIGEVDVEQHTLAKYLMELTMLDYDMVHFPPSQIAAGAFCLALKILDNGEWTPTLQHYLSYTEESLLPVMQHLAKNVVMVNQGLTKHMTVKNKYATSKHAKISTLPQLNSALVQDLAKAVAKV
# NACHT, LRR and PYD domains-containing protein 3, sequence (Q96P20 whole entry, the tested form may be a part): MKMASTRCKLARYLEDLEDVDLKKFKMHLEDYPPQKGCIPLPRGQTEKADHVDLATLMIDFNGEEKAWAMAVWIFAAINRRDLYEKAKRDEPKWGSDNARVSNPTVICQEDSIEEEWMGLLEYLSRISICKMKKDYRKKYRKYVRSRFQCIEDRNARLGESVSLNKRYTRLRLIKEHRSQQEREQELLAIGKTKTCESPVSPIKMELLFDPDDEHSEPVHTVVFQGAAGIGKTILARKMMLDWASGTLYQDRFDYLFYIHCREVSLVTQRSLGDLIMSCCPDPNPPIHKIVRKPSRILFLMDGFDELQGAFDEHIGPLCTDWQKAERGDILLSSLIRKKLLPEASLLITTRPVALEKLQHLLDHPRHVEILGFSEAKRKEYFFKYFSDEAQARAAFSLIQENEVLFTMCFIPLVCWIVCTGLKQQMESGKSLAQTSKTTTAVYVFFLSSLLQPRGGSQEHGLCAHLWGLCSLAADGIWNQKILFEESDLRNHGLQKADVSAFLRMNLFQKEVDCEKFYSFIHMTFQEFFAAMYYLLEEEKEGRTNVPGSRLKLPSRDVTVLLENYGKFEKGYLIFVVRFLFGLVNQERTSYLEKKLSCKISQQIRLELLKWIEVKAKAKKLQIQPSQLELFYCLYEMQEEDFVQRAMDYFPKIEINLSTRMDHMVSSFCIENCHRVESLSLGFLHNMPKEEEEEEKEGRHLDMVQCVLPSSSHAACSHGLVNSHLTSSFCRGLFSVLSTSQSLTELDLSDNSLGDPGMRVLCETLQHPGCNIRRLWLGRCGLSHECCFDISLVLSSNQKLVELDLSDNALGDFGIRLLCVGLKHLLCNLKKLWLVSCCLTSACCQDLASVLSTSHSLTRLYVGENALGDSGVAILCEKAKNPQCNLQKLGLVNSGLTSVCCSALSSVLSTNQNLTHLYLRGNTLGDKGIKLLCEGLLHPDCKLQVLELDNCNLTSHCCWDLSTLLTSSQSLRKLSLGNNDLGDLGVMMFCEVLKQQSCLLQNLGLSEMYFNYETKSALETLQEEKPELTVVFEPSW
# Sphingosine 1-phosphate receptor 2, sequence (O95136 whole entry): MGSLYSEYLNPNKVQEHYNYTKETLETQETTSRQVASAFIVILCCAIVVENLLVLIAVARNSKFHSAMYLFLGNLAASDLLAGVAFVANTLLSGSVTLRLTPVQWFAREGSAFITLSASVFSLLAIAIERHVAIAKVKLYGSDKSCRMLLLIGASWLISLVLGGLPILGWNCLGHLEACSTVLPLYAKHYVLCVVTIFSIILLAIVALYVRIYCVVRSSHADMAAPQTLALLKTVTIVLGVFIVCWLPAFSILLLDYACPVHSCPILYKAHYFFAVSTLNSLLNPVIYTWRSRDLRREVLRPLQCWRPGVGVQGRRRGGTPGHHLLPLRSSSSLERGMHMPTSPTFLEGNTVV
# Cyclin-dependent kinase 5/CDK5 activator 1, sequence (Q00535 whole entry): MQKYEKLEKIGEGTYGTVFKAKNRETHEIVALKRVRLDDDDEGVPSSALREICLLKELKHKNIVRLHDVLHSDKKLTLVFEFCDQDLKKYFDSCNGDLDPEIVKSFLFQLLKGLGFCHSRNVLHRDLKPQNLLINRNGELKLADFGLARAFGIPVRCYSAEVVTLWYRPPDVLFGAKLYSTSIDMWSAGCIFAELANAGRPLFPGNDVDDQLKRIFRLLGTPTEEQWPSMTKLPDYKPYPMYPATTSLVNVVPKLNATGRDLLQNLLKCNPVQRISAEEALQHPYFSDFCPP
# Cyclin-dependent kinase 5/CDK5 activator 1, sequence (Q15078 whole entry, further chain): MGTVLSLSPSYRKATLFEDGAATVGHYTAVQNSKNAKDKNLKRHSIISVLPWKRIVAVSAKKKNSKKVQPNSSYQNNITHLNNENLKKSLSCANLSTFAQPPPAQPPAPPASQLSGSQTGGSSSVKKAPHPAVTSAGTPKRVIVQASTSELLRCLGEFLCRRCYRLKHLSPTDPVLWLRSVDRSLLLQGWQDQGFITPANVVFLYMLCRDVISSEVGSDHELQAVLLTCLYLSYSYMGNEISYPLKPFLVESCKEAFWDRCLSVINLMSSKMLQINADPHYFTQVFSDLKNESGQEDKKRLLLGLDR
# Signal transducer and activator of transcription 3, sequence (P40763 whole entry): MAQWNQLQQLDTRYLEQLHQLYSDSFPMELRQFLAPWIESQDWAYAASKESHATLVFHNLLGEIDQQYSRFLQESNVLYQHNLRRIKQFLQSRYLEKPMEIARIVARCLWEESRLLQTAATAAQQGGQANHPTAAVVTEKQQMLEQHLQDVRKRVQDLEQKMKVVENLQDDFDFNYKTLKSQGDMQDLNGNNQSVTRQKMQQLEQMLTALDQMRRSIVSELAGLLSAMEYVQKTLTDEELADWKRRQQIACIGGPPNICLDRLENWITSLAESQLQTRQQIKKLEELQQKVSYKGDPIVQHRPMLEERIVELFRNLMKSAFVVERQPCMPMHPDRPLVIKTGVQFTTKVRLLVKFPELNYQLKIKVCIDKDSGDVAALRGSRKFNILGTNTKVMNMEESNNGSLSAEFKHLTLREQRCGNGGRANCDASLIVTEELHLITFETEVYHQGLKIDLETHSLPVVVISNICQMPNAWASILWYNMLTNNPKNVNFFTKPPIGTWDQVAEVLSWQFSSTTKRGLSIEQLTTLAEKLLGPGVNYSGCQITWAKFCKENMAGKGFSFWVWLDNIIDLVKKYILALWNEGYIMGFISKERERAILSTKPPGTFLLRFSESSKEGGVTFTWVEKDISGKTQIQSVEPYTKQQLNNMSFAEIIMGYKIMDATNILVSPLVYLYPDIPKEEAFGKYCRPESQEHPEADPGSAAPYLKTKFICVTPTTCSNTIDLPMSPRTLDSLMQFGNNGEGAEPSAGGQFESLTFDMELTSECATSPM
# Wee1-like protein kinase, sequence (P30291 whole entry): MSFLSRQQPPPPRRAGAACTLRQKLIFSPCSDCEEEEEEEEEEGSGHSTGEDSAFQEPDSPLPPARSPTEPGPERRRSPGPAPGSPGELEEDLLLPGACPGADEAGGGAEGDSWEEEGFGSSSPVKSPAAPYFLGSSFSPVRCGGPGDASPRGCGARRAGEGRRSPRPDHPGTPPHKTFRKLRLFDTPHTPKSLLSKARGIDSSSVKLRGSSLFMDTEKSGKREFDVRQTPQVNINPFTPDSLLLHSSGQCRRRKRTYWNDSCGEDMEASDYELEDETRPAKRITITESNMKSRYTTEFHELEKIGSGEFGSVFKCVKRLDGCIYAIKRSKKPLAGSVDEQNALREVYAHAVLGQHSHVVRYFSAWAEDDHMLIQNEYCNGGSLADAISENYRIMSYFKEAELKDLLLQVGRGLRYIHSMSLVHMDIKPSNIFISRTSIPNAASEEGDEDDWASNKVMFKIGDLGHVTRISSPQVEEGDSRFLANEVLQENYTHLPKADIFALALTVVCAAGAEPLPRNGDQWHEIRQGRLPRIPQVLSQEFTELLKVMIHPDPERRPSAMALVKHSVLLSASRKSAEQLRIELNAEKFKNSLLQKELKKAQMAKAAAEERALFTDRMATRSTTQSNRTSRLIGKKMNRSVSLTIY
smiles,measurement,setting,value
O=C1NCCCc2c1oc1ccc(O)cc21,AC50,[1],10.7 µM (active)
COc1ccc(C(=O)NCC(=O)OC2CCCCC2=O)cc1 (stereo not given),EC50,[2],> 55.7 µM (not active)
same,EC50,[3],> 55.7 µM (not active)
N#C/C(=C/c1ccc([N+](=O)[O-])o1)c1nc2ccccc2[nH]1,EC50,[4],3.08 µM (active)
CCCCCCCCCn1c2c(c(=N)c3c1CCC3)CCC2,IC50,[5],9.03 µM (active)
same,EC50,BJ [6],1.15 µM (active)
same,EC50,BJ [7],2.07 µM (active)
same,EC50,[8],0.728 µM (active)
same,IC50,[9],7.18 µM (active)
same,EC50,[10],0.561 µM (active)
same,EC50,BJ [11],8.37 µM (inconclusive)
same,EC50,[12],3.16 µM (active)
same,IC50,[13],9.02 µM (active)
same,IC50,[14],47.8 µM (inactive)
COc1ccc(Cl)cc1NC(=O)c1cc(C2CC2)on1,EC50,[15],0.00455 µM (active)
Cc1cc(O)nc(-n2nc(C)cc2NC(=O)c2ccccc2Cl)n1,EC50,Wee1-like protein kinase,> 16.6 µM (active)
same,EC50,[16],> 49.7 µM (inactive)
CCn1c(C)nc2cc(C(=O)N/N=C(\C)c3ccc(OC)cc3O)ccc21,EC50,[17],12.8 µM (active)
same,EC50,[18],11.2 µM (active)
same,EC50,[19],9.16 µM (active)
same,EC50,[20],> 100 µM (not active)
same,IC50,Prothrombin,> 50 µM (not active)
O=C1C2(Cl)C3(Cl)C4(Cl)C(Cl)(Cl)C5(Cl)C3(Cl)C1(Cl)C5(Cl)C24Cl (stereo not given) [KEPONE],CC50,[21],22.6 µM (active)
same,CC50,[22],8.69 µM (active)
same,AC50,[23],2.68 µM (active)
